Entries after “also recorded” stand apart in the source; their conditions may differ.

In general, half-life refers to the time in which the quantity being followed falls by half. Low readings indicate fast loss, high ones slow loss.

One data set has as its system MDA-MB-231 cell lysates. The data set can be described thus: Fluorescent labeling of MDA-MB-231 whole cell lysates (SDS-PAGE). To be noted: for fluorescent labeling of protein content of cell lysates, O-tosyl vs sulfonamide probe: 100 μM. Type of data set: biochemical. As to the method:
(§1) To investigate the reactivity of 4a in cell lysates, 5 × 10^6 MDA-MB-231 cells were lysed with 200 μL RIPA buffer (Sigma-Aldrich). Lysates were treated with 0-500 μM of compound for 16 h at 4°C and subjected to 4-20% SDS-PAGE. To investigate the in cellulo activity 2 × 10^6 MDA-MB-231 cells were seeded in […] dishes. The following day cells were treated with 0-200 μM of 4a at 37°C, 5% CO2 for 6 h. Cells were lysed using 200 μL RIPA buffer (Sigma-Aldrich) and the lysates were subjected to 4-20% SDS-PAGE. Gels were visualized using the Chemi-Doc MP system. (BIO-RAD). Total protein levels were visualized using Coomassie Brilliant Blue stain. An identical protocol was performed for 4b for direct comparison with 4a.

For data set [1], the target named is T1, purified STAT3 (Homo sapiens, UniProt P40763). The data set is described as follows: Gel-based STAT protein isoform labeling, STAT3. Type of data set: biochemical. Conditions: 100 μM, 16 h, 4°C. Here is the method: (§2) 1.0 μg of purified STAT3, STAT5, and STAT1 (SignalChem) were incubated with 100 uM of 4a for 16 h at 4°C. Samples were subjected to 4-20% SDS-PAGE and imaged using the Chemi-Doc MP (BIO-RAD).
T1 sequence (P40763 whole entry, canonical isoform): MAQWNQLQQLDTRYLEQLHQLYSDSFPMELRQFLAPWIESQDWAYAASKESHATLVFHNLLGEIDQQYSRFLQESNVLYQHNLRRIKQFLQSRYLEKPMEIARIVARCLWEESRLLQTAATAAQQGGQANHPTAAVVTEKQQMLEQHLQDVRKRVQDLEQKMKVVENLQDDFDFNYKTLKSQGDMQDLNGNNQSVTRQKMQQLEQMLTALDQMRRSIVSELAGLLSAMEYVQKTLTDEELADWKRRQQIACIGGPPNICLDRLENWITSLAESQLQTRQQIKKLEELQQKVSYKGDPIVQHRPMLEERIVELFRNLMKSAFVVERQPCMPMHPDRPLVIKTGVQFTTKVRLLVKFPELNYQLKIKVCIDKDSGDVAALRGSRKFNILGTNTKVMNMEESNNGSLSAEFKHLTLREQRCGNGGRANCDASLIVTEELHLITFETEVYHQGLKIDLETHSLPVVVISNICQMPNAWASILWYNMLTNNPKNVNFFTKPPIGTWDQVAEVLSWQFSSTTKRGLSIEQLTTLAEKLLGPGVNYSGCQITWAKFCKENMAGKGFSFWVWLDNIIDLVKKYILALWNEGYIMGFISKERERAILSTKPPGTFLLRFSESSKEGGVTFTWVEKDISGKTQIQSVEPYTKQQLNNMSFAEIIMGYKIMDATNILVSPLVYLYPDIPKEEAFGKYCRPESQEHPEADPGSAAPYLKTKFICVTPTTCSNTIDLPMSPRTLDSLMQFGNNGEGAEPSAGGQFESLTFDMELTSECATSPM

In data set [2] the test system is pSTAT3 in MDA-MB-231 cells. The data set can be described thus: Immunoblotting for activated pSTAT3 levels in MDA-MB-231 cells. Type of data set: cell-based. Conditions: increasing concentrations. Here is the method: as §1
Lysates were reduced, boiled, subjected to 4-20% SDS-PAGE and transferred to LF-PVDF membranes. Membranes were blocked with 3% BSA and incubated with pSTAT3 (Abcam ab76315), STAT3 (Cell Signaling 4904) or B-Actin (Cell signaling 3700) at 4°C overnight. Membranes were then probed with either anti-mouse IgG Alexa Flour 488 (Cell Signaling 4408) or anti-rabbit IgG Alexa Fluor 647 (Cell Signaling 4414) for 1 h at room temperature. Membranes were visualized using the Chemi-Doc MP System (BIO-RAD).
(In general: Immunoblotting shows a protein as a band on a membrane.)

For data set [3], the target named is T1, purified STAT3. The data set can be described thus: In vitro kinetic labeling of purified STAT3 protein by fluorescent probe (SDS-PAGE fluorescence). Type of data set: biochemical. Conditions: 100 μM, 0-4 h, 4°C. As to the method: 1 μg of purified STAT3 (SignalChem) protein was incubated with 100 μM 4a at 4°C. At the indicated time points the reaction was quenched with Laemmli loading buffer containing 1.43 M β-mercaptoethanol. Quenched samples were then subjected to 4-20% SDS-PAGE and imaged using the Chemi-Doc MP system (BIO-RAD). Following gel quantification (Image Lab software, BIO-RAD) the data points were plotted and visualized by GraphPad PRISM software.

In another data set the test system is MDA-MB-231 cells. The data set can be described thus: Live cell dosing of MDA-MB-231 cells, fluorescent protein labeling (SDS-PAGE). Type of data set: cell-based. To be noted: 0, 50, 100, 200 μM, 6 h, 37°C. Here is the method: as §1
The next data set deals with T2, purified STAT1 (Homo sapiens, UniProt P42224).
T2 construct: GST; purchased SignalChem S52-54G
T2 sequence (P42224 1-712 isoform P42224-2): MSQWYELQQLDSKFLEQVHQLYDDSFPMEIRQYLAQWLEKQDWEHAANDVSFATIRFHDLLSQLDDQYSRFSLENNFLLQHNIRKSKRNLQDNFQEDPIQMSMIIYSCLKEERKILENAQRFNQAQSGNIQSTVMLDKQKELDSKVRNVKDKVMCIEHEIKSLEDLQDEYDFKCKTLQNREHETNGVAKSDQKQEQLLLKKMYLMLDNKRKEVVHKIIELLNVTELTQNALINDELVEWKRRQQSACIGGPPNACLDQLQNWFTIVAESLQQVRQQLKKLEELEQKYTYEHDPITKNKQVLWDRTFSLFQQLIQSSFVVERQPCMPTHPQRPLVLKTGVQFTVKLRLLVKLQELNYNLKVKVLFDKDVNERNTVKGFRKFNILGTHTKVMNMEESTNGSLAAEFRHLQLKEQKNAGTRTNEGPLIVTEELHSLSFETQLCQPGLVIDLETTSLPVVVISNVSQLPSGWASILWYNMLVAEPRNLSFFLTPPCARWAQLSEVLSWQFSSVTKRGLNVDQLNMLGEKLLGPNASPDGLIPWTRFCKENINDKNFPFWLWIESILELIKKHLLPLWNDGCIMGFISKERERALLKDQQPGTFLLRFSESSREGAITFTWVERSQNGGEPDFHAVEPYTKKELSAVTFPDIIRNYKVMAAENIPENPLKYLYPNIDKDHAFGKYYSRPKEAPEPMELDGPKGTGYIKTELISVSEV
The data set is described as follows: Gel-based STAT protein isoform labeling, STAT1. Type of data set: biochemical. Conditions: 100 μM, 16 h, 4°C. As to the method: as §2

The target of a further data set is T3, purified STAT5 (Homo sapiens, UniProt P42229).
T3 construct: His; purchased SignalChem S56-54H
T3 sequence (P42229 1-794): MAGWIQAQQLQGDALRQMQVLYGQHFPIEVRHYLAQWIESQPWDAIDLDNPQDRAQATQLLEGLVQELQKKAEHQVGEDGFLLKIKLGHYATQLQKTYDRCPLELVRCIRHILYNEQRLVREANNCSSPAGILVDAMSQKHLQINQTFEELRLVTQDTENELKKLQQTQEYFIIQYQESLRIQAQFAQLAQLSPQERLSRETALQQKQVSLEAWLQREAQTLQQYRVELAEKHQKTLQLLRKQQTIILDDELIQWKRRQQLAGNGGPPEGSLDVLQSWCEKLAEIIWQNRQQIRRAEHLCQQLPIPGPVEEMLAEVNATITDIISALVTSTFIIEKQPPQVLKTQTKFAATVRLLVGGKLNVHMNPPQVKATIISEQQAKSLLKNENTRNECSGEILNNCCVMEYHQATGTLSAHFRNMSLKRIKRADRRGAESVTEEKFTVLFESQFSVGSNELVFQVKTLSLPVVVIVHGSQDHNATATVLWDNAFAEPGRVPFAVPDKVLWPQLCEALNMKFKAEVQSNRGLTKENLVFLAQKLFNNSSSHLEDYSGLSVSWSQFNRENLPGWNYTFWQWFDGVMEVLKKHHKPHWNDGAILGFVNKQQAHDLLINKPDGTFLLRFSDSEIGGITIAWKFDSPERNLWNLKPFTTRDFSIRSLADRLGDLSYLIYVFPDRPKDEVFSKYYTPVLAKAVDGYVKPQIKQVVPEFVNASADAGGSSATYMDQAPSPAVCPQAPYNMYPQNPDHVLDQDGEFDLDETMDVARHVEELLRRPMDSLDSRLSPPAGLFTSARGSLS
The data set can be described thus: Gel-based STAT protein isoform labeling, STAT5. Type of data set: biochemical. To be noted: 100 μM, 16 h, 4°C. Here is the method: as §2

The nature of data set [4]: HPLC-based glutathione (GSH) reactivity / chemical stability assay, 10 mM GSH with TCEP-HCl. To be noted: 100 μM compound; for K (kobs), one phase decay / Tau, one phase decay: 10 mM TCEP-HCl, 50 mM HEPES pH 7.4; for reactivity with GSH: 10 h timescale.
Procedure: From 10 mM compound stock solutions in DMSO 10 μL aliquots were transferred to an analytical HPLC vial containing 990 μL of reaction buffer (10.0 mM reduced GSH, 10.0 mM tris(2-carboxyethyl)phosphine hydrochloride (TCEP-HCl) and 50 mM HEPES buffered to pH 7.4) directly preceding 40.0 μL injections continued over a periodic time course. The process was automated by a Hewlett Packard Series 1100 analytical HPLC system fitted with an Agilent ZORBAX 3.5 μm Eclipse XDB-C18 column (23.0–24.0°C) under a linear elution gradient from H2O (double distilled and de-ionized to 18.2 MΩ cm) with 0.10 v/v % TFA to 100% HPLC grade CH3CN over 8.00 min followed by 2.00 min of sustained CH3CN under a 1.200 mL min^−1 flow rate. […] The data, measured in three replicates was fit to a one-phase exponential decay model (GraphPad PRISM) and kinetic parameters extracted from (1).
(1) A(t)=(A0−A∞)e^−kobs^t+A∞
The test system of another data set is glutathione (GSH). The data set is described as follows: physchem. To be noted: HEPES buffer with reduced glutathione (GSH) and TCEP-HCl, pH 7.4.
Another data set has as its system STAT3. Conditions: cited from earlier work.
The subject of a further data set is activated STAT3 dimer. More on the design: method as in PMID 21618433. Conditions: STAT3 EMSA assay; read-out: inhibition of activated STAT3 dimerization; cited from earlier work. (In general: Mobility shift assays separate free from complexed probe on a gel.)
In data set [5] the target is recombinant, full-length STAT3 (Homo sapiens, UniProt P40763). The data set can be described thus: Incubation of recombinant full-length STAT3 with S3I-201, tryptic digestion and LC-MS/MS. Conditions: 500 μM S3I-201 (80-fold molar excess), 1 h, 37°C.
Sequence of recombinant, full-length STAT3 (P40763 whole entry): as the sequence (P40763 whole entry, canonical isoform) above
Procedure: The incubation was then quenched by the addition of dithiothreitol (DTT) to a final concentration of 0.5 mM and incubation at 55°C for 30 min. Free sulfhydryl groups were alkylated with 2-iodoacetamide (Sigma) at a final concentration of 1.5 mM for 45 min at room temperature. The samples were subjected to trypsin (Promega) digestion (0.5 μg of trypsin per reaction), lyophilized, re-suspended in 0.1% formic acid, and desalted using ZipTip C18 (EMD Millipore) prior to analysis. Samples were analyzed by LC-MS/MS on a nanoLC ultra HPLC system (Eksigent) coupled to a Thermo Scientific Orbitrap-Elite.
The aqueous and organic mobile phases consisted of 0.1% formic acid in water or CH3CN respectively. Organic mobile phase composition was varied over each hour long LC-MS/MS analysis as follows: 2% from 0 to 1 min, 10% to 35% from 1 to 35 min, 80% from 35.5 to 44.5 min, 2% from 45 to 60 min.
A further data set has as its target STAT3:DNA binding. Conditions: approximate, reported value; read-out: approximate IC50 for the disruption of STAT3:DNA binding; cited from earlier work.

For the molecule `Cc1ccc(S(=O)(=O)OCC(=O)N(Cc2cn(CCOCCOCCOCCNS(=O)(=O)c3cccc4c(N(C)C)cccc34)nn2)c2ccc(C(=O)O)c(O)c2)cc1` [4a], the “fluorescent labeling of protein content of cell lysates” value in the data set on MDA-MB-231 cell lysates (0, 100, 250, 500 μM, 16 h, 4°C) is recorded as “pronounced, non-specific, global labeling of the protein content”. In addition, the “fluorescent labeling of protein content of cell lysates, O-tosyl vs sulfonamide probe” value in the data set on MDA-MB-231 cell lysates is given as “promiscuously modified”. In addition, the “fluorescent labeling of purified STAT3” value on purified STAT3 [1] is “non-specific fluorescent labeling of all three STAT isoforms”. Also, the “pSTAT3 levels (immunoblot)” value in [2] is “dose-dependent decrease in pSTAT3 levels”. For the same molecule, on purified STAT3 [3], the “fluorescent labeling of purified STAT3 over time course” value is reported as “time dependent increase in fluorescent signal”. For the same molecule, the “fluorescent labeling of intracellular proteins in whole cells” value is “increasing levels of fluorescent intensities following the dose of reporter” in the data set on MDA-MB-231 cells; “non-specifically and globally alkylated intracellular proteins” in the data set with MDA-MB-231 cells (listed as DB-6-055). The “fluorescent labeling of purified STAT1” value at purified STAT1 was “non-specific fluorescent labeling of all three STAT isoforms”. Also, the “fluorescent labeling of purified STAT5” value at purified STAT5 is listed as “non-specific fluorescent labeling of all three STAT isoforms”.
With `Cc1ccc(S(=O)(=O)NCC(=O)N(Cc2cn(CCOCCOCCOCCNS(=O)(=O)c3cccc4c(N(C)C)cccc34)nn2)c2ccc(C(=O)O)c(O)c2)cc1` [4b], the “fluorescent labeling of protein content of cell lysates, O-tosyl vs sulfonamide probe” value in the data set on MDA-MB-231 cell lysates was “no observable fluorescent enhancement”.
`CN(CC(=O)N(Cc1ccc(C2CCCCC2)cc1)c1ccc(C(=O)O)c(O)c1)S(=O)(=O)c1c(F)c(F)c(F)c(F)c1F` [BP-1-102]: in [4], the “K (kobs), one phase decay” value amounted to 0.5322 h⁻¹ and the “Tau, one phase decay” value worked out at 1.879.
`Cc1ccccc1CN(CC(=O)N(Cc1ccc(C2CCCCC2)cc1)c1ccc(C(=O)O)c(O)c1)S(=O)(=O)c1ccc(C(F)(F)F)cc1` [BP-5-087] had a half-life at 100 μM with glutathione (GSH) of 5.14 h. Besides, in data set [4], the “K (kobs), one phase decay” value amounted to 0.1348 h⁻¹; the “Tau, one phase decay” value was found to be 7.417; the “reactivity with GSH” value is on record as “negligible reactivity with GSH”.
The corresponding values for `Cc1ccc(S(=O)(=O)NCC(=O)Nc2ccc(C(=O)O)c(O)c2)cc1` [DB-5-112] are 25400 h, 2.725e-05 h⁻¹, 36701 and “no reactivity toward GSH”.
On to `C[C@@H]1C=C2C(=O)O[C@@H]3CC[C@H](C1)[C@]23O` [Galiellalactone], for which the “cysteine residues of STAT3 covalently modified (MS/MS analysis)” value with STAT3 was “covalently modified three cysteine residues (367, 468, and 542)”.
As for `Cc1ccc(S(=O)(=O)OCC(=O)Nc2ccc(C(=O)O)c(O)c2)cc1` [S3I-201], the IC50 in the data set with activated STAT3 dimer is 86 µM; at STAT3:DNA binding, ~100 µM. In data set [5], the “cysteine residues of STAT3 covalently modified (LC-MS/MS)” value is “covalently modified Cys108, Cys259, Cys367, Cys542, and Cys687; also recorded: five specific sites of modification, cysteine's 108, 259, 367, 542, and 687; also recorded: Cys residues (418, 426, and 712) were not alkylated”. Also, in data set [4], the “K (kobs), one phase decay” value was 2.735 h⁻¹. Moreover, the “Tau, one phase decay” value in [4] is listed as 0.3657.
Take `Cc1ccc(S(=O)(=O)N(C)CC(=O)N(Cc2ccc(C3CCCCC3)cc2)c2ccc(C(=O)O)c(O)c2)cc1` [SF-1-066]: the half-life at 100 μM in the data set on glutathione (GSH) was ~0.0409 h. Further, in [4], the “K (kobs), one phase decay” value was ~ 16.95 h^−1; the “Tau, one phase decay” value is on record as ~ 0.05898; the “reactivity with GSH” value was “negligible reactivity with GSH”.
With `CN(CC(=O)N(Cc1ccc(C2CCCCC2)cc1)c1ccc(C(=O)O)cc1)S(=O)(=O)c1c(F)c(F)c(F)c(F)c1F` [SH-4-054], in [4], the “K (kobs), one phase decay” value was 0.5147 h⁻¹ and the “Tau, one phase decay” value stood at 1.943.
Turning to `O=[N+]([O-])c1ccc2c(c1)S(=O)(=O)C=C2` [Stattic], the “cysteine residues of STAT3 modified” value in the data set with STAT3 is “Cys251, 259, 367, and 426”.
